Measurements as given in patent US7982043B2, “Protein tyrosine kinase enzyme inhibitors” (Wyeth LLC, priority 2003, dated 2011).
Values after ≈ are worked out from the molar mass of the structure shown.

Assays:
Assay type in all cases: cell-based
[1] = test system: A431 cells; experiment: Cell proliferation assay (SRB), A431; details: EGFR +++, Her-2 +, 2 days, SRB; for IC50: Homo sapiens, A-431, 48 h, read-out: CELL IC50 A431
[2] = test system: MDA-MB-435 cells; experiment: Cell proliferation assay (SRB), MDA-MB-435; details: EGFR −, Her-2 −, 2 days, SRB; for IC50: Homo sapiens, MDA-MB-435, 48 h, read-out: CELL IC50 MDA-MB-435
[3] = test system: SW620 cells; experiment: Cell proliferation assay (SRB), SW620; details: EGFR −, Her-2 −, 2 days, SRB; for IC50: Homo sapiens, SW-620, 48 h, read-out: CELL IC50 SW620
[4] = test system: SK-Br-3 cells; experiment: Cell proliferation assay (SRB), SK-Br-3; details: EGFR −, Her-2 +++, 2 days, SRB; for IC50: Homo sapiens, SK-BR-3, 48 h, read-out: CELL IC50 SKBr3
[5] = molecular target: mouse fibroblast cell line transfected with the HER-2 oncogene (3T3/neu) (UniProt P04626, cells depend on it, species not given); experiment: Cell proliferation assay (SRB), 3T3/neu; details: EGFR −, Her-2 +++, 2 days, SRB; for GI50: read-out: CELL IC50 3T3/NEU (converted)

Compound | IC50 [1] | IC50 [2] | IC50 [3] | IC50 [4] | GI50 [5] | CELL IC50 A431 [1] | CELL IC50 MDA-MB-435 [2] | CELL IC50 SW620 [3] | CELL IC50 SKBr3 [4] | CELL IC50 3T3/NEU [5]
CCOc1cc2ncc(C#N)c(Nc3ccc(Sc4nc(-c5ccccc5)cs4)c(Cl)c3)c2cc1NC(=O)/C=C/CN(C)C [Example 72, (E)-N-(4-{3-chloro-4-[(4-phenyl-1,3-thiazol-2-yl)sulfanyl]anilino}-3-cyano-7-ethoxy-6-quinolinyl)-4-(dimethylamino)-2-butenamide] | 0.24 µg/mL (≈ 0.374 µM) | 0.18 µg/mL (≈ 0.281 µM) | 0.54 µg/mL (≈ 0.842 µM) | 0.006 µg/mL (≈ 0.00936 µM) | 31.2 nM | – | – | – | – | –
CCOc1cc2ncc(C#N)c(Nc3ccc(Sc4nc(-c5ccccc5)cs4)c(C(F)(F)F)c3)c2cc1[N+](=O)[O-] [Example 67, 7-ethoxy-6-nitro-4-[4-[(4-phenyl-1,3-thiazol-2-yl)sulfanyl]-3-(trifluoromethyl)anilino]-3-quinolinecarbonitrile] | 0.76 µg/mL (≈ 1.28 µM) | 0.4 µg/mL (≈ 0.674 µM) | 0.4 µg/mL (≈ 0.674 µM) | 0.268 µg/mL (≈ 0.451 µM) | 1150 nM | – | – | – | – | –
(E)-N-{4-[3-chloro-4-(1H-imidazol-1-yl)anilino]-3-cyano-7-methoxy-6-quinolinyl}-azol-1-yl)anilino]-4-(dimethylamino)-2-)anilino-2-butenamide [Example 43] | – | – | – | – | – | 0.51 µg/mL | 0.57 µg/mL | 1.45 µg/mL | 0.32 µg/mL | 1.46 µg/mL
COc1cc2ncc(C#N)c(Nc3ccc(Sc4nc5ccccc5c(=O)[nH]4)c(Cl)c3)c2cc1N [Example 45] | – | – | – | – | – | 1.22 µg/mL | 4.58 µg/mL | 4.66 µg/mL | 2.15 µg/mL | 1.88 µg/mL
COc1cc2ncc(C#N)c(Nc3ccc(Sc4nccn4C)c(Cl)c3)c2cc1[N+](=O)[O-] [Example 35, 4-({3-chloro-4-[(1-methyl-1H-imidazol-2-yl)sulfanyl]phenyl}amino)-7-methoxy-6-nitro-3-quinolinecarbonitrile] | 2.88 µg/mL (≈ 6.17 µM) | 1 µg/mL (≈ 2.14 µM) | 1.55 µg/mL (≈ 3.32 µM) | 0.669 µg/mL (≈ 1.43 µM) | 8760 nM | – | – | – | – | –
COc1cc2ncc(C#N)c(Nc3ccc(N(Cc4cccnc4)C(C)=O)c(Cl)c3)c2cc1NC(=O)/C=C/CN(C)C [Example 47] | – | – | – | – | – | 0.646 µg/mL | 1.16 µg/mL | 1.64 µg/mL | >5 µg/mL | >5 µg/mL
CCOc1cc2ncc(C#N)c(Nc3ccc(Sc4nc(-c5ccccc5)cs4)c(C(F)(F)F)c3)c2cc1NC(=O)/C=C/CN(C)C [Example 69, (E)-N-{3-cyano-7-ethoxy-4-[4-[(4-phenyl-1,3-thiazol-2-yl)sulfanyl]-3-(trifluoromethyl)anilino]-6-quinolinyl}-4-(dimethylamino)-2-butenamide] | 0.3 µg/mL (≈ 0.445 µM) | 0.3 µg/mL (≈ 0.445 µM) | 0.6 µg/mL (≈ 0.889 µM) | > 5 µg/mL | 622 nM | – | – | – | – | –
COc1cc2ncc(C#N)c(Nc3ccc(Sc4nccs4)c(Cl)c3)c2cc1N [Example 39, 6-amino-4-{[3-chloro-4-(1,3-thiazol-2-ylsulfanyl)phenyl]amino}-7-methoxy-3-quinolinecarbonitrile] | 0.663 µg/mL (≈ 1.51 µM) | 0.65 µg/mL (≈ 1.48 µM) | 0.55 µg/mL (≈ 1.25 µM) | 0.236 µg/mL (≈ 0.536 µM) | 757 nM | – | – | – | – | –

Continued by falling GI50 [5], values first:

IC50 [1] | IC50 [2] | IC50 [3] | IC50 [4] | GI50 [5] | CELL IC50 A431 [1] | CELL IC50 MDA-MB-435 [2] | CELL IC50 SW620 [3] | CELL IC50 SKBr3 [4] | CELL IC50 3T3/NEU [5] | Compound
1.79 µg/mL (≈ 3.34 µM) | 1.84 µg/mL (≈ 3.43 µM) | 2.54 µg/mL (≈ 4.74 µM) | 1.22 µg/mL (≈ 2.28 µM) | 3530 nM | – | – | – | – | – | CCOc1cc2ncc(C#N)c(Nc3ccc(Nc4nnc(C(F)(F)F)s4)c(Cl)c3)c2cc1[N+](=O)[O-] [Example 52, 4-(3-chloro-4-{[5-(trifluoromethyl)-1,3,4-thiadiazol-2-yl]amino}anilino)-7-ethoxy-6-nitro-3-quinolinecarbonitrile]
1.2 µg/mL (≈ 2.43 µM) | 1.3 µg/mL (≈ 2.64 µM) | 0.9 µg/mL (≈ 1.83 µM) | 0.45 µg/mL (≈ 0.913 µM) | 3020 nM | – | – | – | – | – | CCOc1cc2ncc(C#N)c(Nc3ccc(Sc4nccc(C)n4)c(Cl)c3)c2cc1[N+](=O)[O-] [Example 63, 4-{3-chloro-4-[(4-methyl-2-pyrimidinyl)sulfanyl]anilino}-7-ethoxy-6-nitro-3-quinolinecarbonitrile]
0.62 µg/mL (≈ 1.35 µM) | 4.57 µg/mL (≈ 9.91 µM) | 1.84 µg/mL (≈ 3.99 µM) | 0.01 µg/mL (≈ 0.0217 µM) | 1000 nM | – | – | – | – | – | C=CC(=O)Nc1ccc2ncc(C#N)c(Nc3ccc(Sc4nccn4C)c(Cl)c3)c2c1 [Example 21, N-{4-[3-Chloro-4-(1-methyl-1H-imidazol-2-ylsulfanyl)-phenylamino]-3-cyano-quinolin-6-yl}-acrylamide]
0.12 µg/mL (≈ 0.209 µM) | 0.3 µg/mL (≈ 0.523 µM) | 0.2 µg/mL (≈ 0.348 µM) | 0.001 µg/mL (≈ 0.00174 µM) | 5.23 nM | – | – | – | – | – | CCOc1cc2ncc(C#N)c(Nc3ccc(Sc4nccc(C)n4)c(Cl)c3)c2cc1NC(=O)/C=C/CN(C)C [Example 65, (E)-N-(4-{3-chloro-4-[(4-methyl-2-pyrimidinyl)sulfanyl]anilino}-3-cyano-7-ethoxy-6-quinolinyl)-4-(dimethylamino)-2-butenamide]
